Experimental data taken from patent publication US10618903B2, “Heteroaryl substituted aminopyridine compounds” (BRISTOL-MYERS SQUIBB COMPANY, priority 2015, dated 2020).

Tests used:
[1] = tested on: IL-6 levels in human whole blood stimulated with a TLR2 agonist; assay: IRAK4 Whole Blood Assay (lipoteichoic acid/TLR2-stimulated IL-6); format: cell-based; conditions: lipoteichoic acid 10 μg/mL, IL-6 readout
In short: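 IL-6 was quantified by cytometric bead assay in supernatants of human blood (ACD-A) stimulated for 5 h with lipoteichoic acid at 10 μg/mL final. Compound exposure preceded stimulation for 60 min at 37 °C, 5% CO2.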

IRAK4 = IRAK4 (Homo sapiens (Human), UniProt Q9NWZ3); assay: IRAK4 Inhibition Assay; format: biochemical; conditions: ATP 500 μM; IRAK4 0.6 nM
In short: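 Readout: electrophoretic (LabChip) separation of fluorescent peptide substrate from phosphorylated product after EDTA quench. Reactions ran 60 min at room temperature with 0.6 nM IRAK4, 1.5 μM peptide and 500 μM ATP; inhibition referenced to no-enzyme (100%) and vehicle (0%) controls.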

Caco Permeability Assay = format: in vitro ADME; conditions: human, Caco-2, Caco-2 cells, 3 μM compound
Procedure: Thirteen to 27 days prior to assay, Caco-2 cells were seeded onto collagen-coated polycarbonate filter membranes in 24-well transwell plates at a density of 1.45×10^5 cells/cm^2, approximately 4.8×10^4 cells per well. The cells were grown in a culture medium consisting of DMEM supplemented with 10% fetal bovine serum, 10 mM HEPES, 1% nonessential amino acids, 2 mM L-glutamine, 100 U/mL penicillin-G, and 100 μg/mL streptomycin. The culture medium was replaced every 3 days and the cells were maintained at 37° C. in a 95% relative humidity and 5% CO2 atmosphere. The cells were evaluated for tight junction formation just prior to assay. The test compound was solubilized to 10 mM in 100% DMSO and diluted to 3 μM in assay buffer. Permeability studies were initiated by adding 200 μL assay buffer plus/minus compound to the apical transwell compartment and 600 μL assay buffer plus/minus compound to the basolateral compartment of the 24-well transwell low-binding cluster plate. For apical-to-basolateral (A to B) permeability (absorptive direction), buffer containing compound was placed in the apical compartment (donor wells), while buffer alone was placed in the corresponding basolateral compartments (receiver wells). For basolateral-to-apical (B to A) permeability (secretive direction), buffer containing compound was placed in the basolateral compartment (donor wells), while buffer alone was placed in the corresponding apical compartments (receiver wells). Transwells were then incubated for 2 hours at 37° C. in a 95% relative humidity and 5% CO2 atmosphere with gentle agitation. Following incubation, 100 μL was removed from each apical and basolateral compartment and transferred to 96-well low binding plates that had been previously loaded with 100 µL/well of acetonitrile containing 250 nM propranolol, 250 nM diclofenac, and 500 nM tolbutamide as internal standards. The samples were subsequently analyzed by LC-MS/MS to determine concentrations of compound.

Chain of IRAK4 (Q9NWZ3 whole entry): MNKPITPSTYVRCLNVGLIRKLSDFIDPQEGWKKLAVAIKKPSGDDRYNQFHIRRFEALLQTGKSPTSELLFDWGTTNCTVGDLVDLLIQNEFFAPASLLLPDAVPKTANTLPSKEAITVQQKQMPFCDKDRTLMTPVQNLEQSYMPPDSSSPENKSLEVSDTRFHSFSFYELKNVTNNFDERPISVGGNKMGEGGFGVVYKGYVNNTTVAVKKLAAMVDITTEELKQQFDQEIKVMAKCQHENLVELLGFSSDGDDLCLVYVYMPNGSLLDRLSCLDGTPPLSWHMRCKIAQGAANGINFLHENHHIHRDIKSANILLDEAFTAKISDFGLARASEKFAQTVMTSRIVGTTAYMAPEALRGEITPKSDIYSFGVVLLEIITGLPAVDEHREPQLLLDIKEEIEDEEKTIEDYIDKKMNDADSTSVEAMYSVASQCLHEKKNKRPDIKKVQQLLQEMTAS

SMILES	EC50 ([1]; Homo sapiens) [nM]	IC50 (IRAK4) [nM]	Papp at 2 h, 3 µM (Caco Permeability Assay) [×10⁻⁶ cm/s]	EC50 [1] [nM]
CC(C)(O)[C@H](F)CNC(=O)c1cnc(-c2cnn3cc(Cl)cnc23)cc1NC12CCC(O)(CC1)C2 [Example 73, (R)-6-(6-chloropyrazolo[1,5-a]pyrimidin-3-yl)-N-(2-fluoro-3-hydroxy-3-methylbutyl)-4-((4-hydroxybicyclo[2.2.1]heptan-1-yl)amino)nicotinamide]	710	2	< 1.5	–
CC(O)CCNc1cc(-c2cnn3cc(Cl)cnc23)ncc1C(=O)NC[C@@H](F)C(C)(C)O (stereo partly drawn) [Example 82, 6-(6-chloropyrazolo[1,5-a]pyrimidin-3-yl)-N—((R)-2-fluoro-3-hydroxy-3-methylbutyl)-4-((3-hydroxybutyl)amino)nicotinamide]	580	6	< 1.5	–
CC(C)(O)[C@H](F)CNC(=O)c1cnc(-c2cnn3cc(Cl)cnc23)cc1NC1CCC(F)C1 (stereo partly drawn) [Example 83, 6-(6-chloropyrazolo[1,5-a]pyrimidin-3-yl)-N—((R)-2-fluoro-3-hydroxy-3-methylbutyl)-4-((3-fluorocyclopentyl)amino)nicotinamide]	–	1	15.9	810
CC(C)Nc1cc(-c2cnn3cc(C#N)cnc23)ncc1C(=O)NC[C@@H](F)C(C)(C)O [Example 87, (R)-6-(6-cyanopyrazolo[1,5-a]pyrimidin-3-yl)-N-(2-fluoro-3-hydroxy-3-methylbutyl)-4-(isopropylamino)nicotinamide]	250	2	5.6	–
CC(C)(O)[C@H](F)CNC(=O)c1cnc(-c2cnn3cc(C#N)cnc23)cc1NC1CCOCC1 [Example 90, (R)-6-(6-cyanopyrazolo[1,5-a]pyrimidin-3-yl)-N-(2-fluoro-3-hydroxy-3-methylbutyl)-4-((tetrahydro-2H-pyran-4-yl)amino)nicotinamide]	400	4	2.8	–
CC(C)(O)[C@H](F)CNC(=O)c1cnc(-c2cnn3cc(C#N)cnc23)cc1NC1CC1 [Example 92, (R)-6-(6-cyanopyrazolo[1,5-a]pyrimidin-3-yl)-4-(cyclopropylamino)-N-(2-fluoro-3-hydroxy-3-methylbutyl) nicotinamide]	720	20	7.4	–
CCNc1cc(-c2cnn3cc(C#N)cnc23)ncc1C(=O)NC[C@@H](F)C(C)(C)O [Example 93, (R)-6-(6-cyanopyrazolo[1,5-a]pyrimidin-3-yl)-4-(ethylamino)-N-(2-fluoro-3-hydroxy-3-methylbutyl)nicotinamide]	1660	6	7.2	–
CC[C@@H](C)Nc1cc(-c2cnn3cc(C#N)cnc23)ncc1C(=O)NC[C@@H](F)C(C)(C)O [Example 97, 4-(((R)-sec-butyl)amino)-6-(6-cyanopyrazolo[1,5-a]pyrimidin-3-yl)-N—((R)-2-fluoro-3-hydroxy-3-methylbutyl)nicotinamide]	1600	4	8	–
CC(C)Nc1cc(-c2cnn3cc(C#N)cnc23)ncc1C(=O)N[C@H]1CC[C@H](C(C)(C)O)CC1 [Example 104, 6-(6-cyanopyrazolo[1,5-a]pyrimidin-3-yl)-N-((1r,4r)-4-(2-hydroxypropan-2-yl)cyclohexyl)-4-(isopropylamino)nicotinamide]	800	7	16.2	–
CC(C)(O)[C@H](F)CNC(=O)c1cnc(-c2cnn3cc(C#N)cnc23)cc1N[C@@H]1CCC[C@@H]1F [Example 105, 6-(6-cyanopyrazolo[1,5-a]pyrimidin-3-yl)-N—((R)-2-fluoro-3-hydroxy-3-methylbutyl)-4-(((1R,2S)-2-fluorocyclopentyl)amino) nicotinamide]	240	7	8.6	–
CC(CCF)Nc1cc(-c2cnn3cc(C#N)cnc23)ncc1C(=O)NC[C@@H](F)C(C)(C)O (stereo partly drawn) [Example 106, 6-(6-cyanopyrazolo[1,5-a]pyrimidin-3-yl)-N—((R)-2-fluoro-3-hydroxy-3-methylbutyl)-4-((4-fluorobutan-2-yl)amino)nicotinamide]	1030	4	7	–
CNC(=O)c1ccc(Nc2cc(-c3cnn4cc(C#N)cnc34)ncc2C(=O)NC[C@@H](F)C(C)(C)O)cc1 [Example 110, (R)-6-(6-cyanopyrazolo[1,5-a]pyrimidin-3-yl)-N-(2-fluoro-3-hydroxy-3-methylbutyl)-4-((4-(methylcarbamoyl)phenyl)amino) nicotinamide]	270	3	< 1.5	–
COc1cnc(N2CC[C@@H](Nc3cc(-c4cnn5cc(C#N)cnc45)ncc3C(=O)NC[C@@H](F)C(C)(C)O)C2)nc1 [Example 115, 6-(6-cyanopyrazolo[1,5-a]pyrimidin-3-yl)-N—((R)-2-fluoro-3-hydroxy-3-methylbutyl)-4-(((R)-1-(5-methoxypyrimidin-2-yl)pyrrolidin-3-yl)amino)nicotinamide]	2030	6	< 1.5	–
CC(C)Nc1cc(-c2cnn3cc(F)cnc23)ncc1C(=O)NC[C@@H](F)C(C)(C)O [Example 130, (R)—N-(2-fluoro-3-hydroxy-3-methylbutyl)-6-(6-fluoropyrazolo[1,5-a]pyrimidin-3-yl)-4-(isopropylamino)nicotinamide]	1890	17	22.1	–
CC(C)(O)[C@H](F)CNC(=O)c1cnc(-c2cnc3cc(Cl)cnn23)cc1NC1COC1 [Example 141, (R)-6-(7-chloroimidazo[1,2-b]pyridazin-3-yl)-N-(2-fluoro-3-hydroxy-3-methylbutyl)-4-(oxetan-3-ylamino)nicotinamide]	490	4	5.2	–
CC(C)Nc1cc(-c2cnc3cc(Cl)cnn23)ncc1C(=O)NC[C@@H](F)C(C)(C)O [Example 142, (R)-6-(7-chloroimidazo[1,2-b]pyridazin-3-yl)-N-(2-fluoro-3-hydroxy-3-methylbutyl)-4-(isopropylamino)nicotinamide]	100	3	19	–
CC(C)(O)[C@H](F)CNC(=O)c1cnc(-c2cnc3cc(Cl)cnn23)cc1NC1CCOCC1 [Example 143, (R)-6-(7-chloroimidazo[1,2-b]pyridazin-3-yl)-N-(2-fluoro-3-hydroxy-3-methylbutyl)-4-((tetrahydro-2H-pyran-4-yl)amino)nicotinamide]	1080	2	8.2	–
CC(C)(O)[C@H](F)CNC(=O)c1cnc(-c2cnc3cc(Cl)cnn23)cc1NC1CC1 [Example 144, (R)-6-(7-chloroimidazo[1,2-b]pyridazin-3-yl)-4-(cyclopropylamino)-N-(2-fluoro-3-hydroxy-3-methylbutyl)nicotinamide]	230	3	13.4	–
CC(C)Nc1cc(-c2cnc3cc(C#N)cnn23)ncc1C(=O)NC[C@@H](F)C(C)(C)O [Example 145, (R)-6-(7-cyanoimidazo[1,2-b]pyridazin-3-yl)-N-(2-fluoro-3-hydroxy-3-methylbutyl)-4-(isopropylamino)nicotinamide]	240	2	12.3	–
